Measurements reported in EP3365068B1, “COSMETIC COMPOSITIONS FOR SKIN WHITENING” (Lumene Oy, priority 2015, dated 2017).

Experiments:
[1] = system: normal human epidermal melanocytes (NHEM); assay: Melanin synthesis under stimulated condition (L-tyrosine-induced, OD at 405 nm); format: cell-based; details: tested at 5 µg/ml, L-tyrosine 1 mM, 10 days
Description: More specifically, the effect of the compound was evaluated on the following parameters: • 1. […] Melanin synthesis in NHEM stimulated by […]. • 3. […] For the tyrosinase activity assay the following concentrations were tested: 0.33, 1, 3, 9, 27 and 81 mg/ml (the spray-dried cloudberry powder was dissolved in assay buffer). For the melanin synthesis and melanocyte dendricity assay the following concentrations were tested: 0.33, 1 and 3 mg/ml (the spray-dried cloudberry powder was dissolved in culture medium). Melanocytes were seeded in 24-well plates and cultured in their culture medium for 24 hours. The medium was then replaced by culture medium containing or not (stimulated control) the inducer (L-Tyrosine) and the test compound of the reference (lipoic acid at 5 µg/ml). […] In parallel, a non-stimulated control was performed. Each experimental condition was performed in n=3. At the end of incubation, melanin was extracted by cell lysis using a 0.5 N NaOH solution. The optical density (OD) of each experimental point was measured at 405 nm and melanin quantity was calculated using melanin standards. Results were expressed in µg/ml of melanin and in percentage of inhibition compared to control.

[2] = system: co-culture of NHEM and normal human epidermal keratinocytes (NHEK); assay: Melanocyte dendricity under stimulated condition (IBMX, immunofluorescent labeling and image analysis); format: cell-based; details: tested at 0.025 µg/ml, IBMX 200 µM, 72 hours, read-out: % of inhibition of the formation of dendrites by the melanocytes
Description: Two further assays were carried out to evaluate the whitening effect of the powder, i.e. melanin synthesis in NHEM stimulated by […] and melanocyte dendricity in a co-culture of NHEM and normal human epidermal keratinocytes (NHEK) in presence of IBMX (a melanocyte dendricity stimulating agent) using in situ immunofluorescent labeling and image analysis. As reference substances in these tests lipoic acid and vincristine, respectively, were used.
More specifically, the effect of the compound was evaluated on the following parameters: • 1. Activity of tyrosinase enzyme extracted from NHEM (acellular assay). • 2. Melanin synthesis in NHEM stimulated by […]. • 3. Melanocyte dendricity in a co-culture of NHEM and normal human epidermal keratinocytes (NHEK) in presence of IBMX (a melanocyte dendricity stimulating agent) using in situ immunofluorescent labeling and image analysis.
For the tyrosinase activity assay the following concentrations were tested: 0.33, 1, 3, 9, 27 and 81 mg/ml (the spray-dried cloudberry powder was dissolved in assay buffer). […]
Images were acquired of the wells (10 photos per well). The labeling was quantified by the measurement of the dendrite fluorescence area normalized to the total number of melanocytes.

Row | SMILES | % of inhibition of L-tyrosine-induced melanin synthesis [1] [%] | inhibition at 0.025 µg/mL [2] [%]
1 | O=C(O)CCCC[C@@H]1CCSS1 (racemic) [lipoic acid] | 108 | 
2 | CC[C@]1(O)C[C@H]2CN(CCc3c([nH]c4ccccc34)[C@@](C(=O)OC)(c3cc4c(cc3OC)N(C=O)[C@H]3[C@@](O)(C(=O)OC)[C@H](OC(C)=O)[C@]5(CC)C=CCN6CC[C@]43[C@@H]65)C2)C1 [vincristine] |  | 175
